Results from patent US6939850B2, “Altered human interleukin-1β convertase (ICE), NEDD-2, and C. elegans ced-3 polypeptides and uses therefor” (Massachusetts Institute of Technology, priority 1992, dated 2005).
Square brackets hold non-standard residues; d marks the D form. * marks the point of attachment. CH2Cl = ClC*

Assays:
lumbar motoneurons = assay: Naturally occurring lumbar motoneuron cell death in vivo; parameters: species or system chick; details: mean ±SD; for Pyknotic Lumbar Motoneurons on E8: 15 hours post treatment, single administration of 400 μg on E8; for Healthy Motoneurons (lumbar) on E9 / Pyknotic Motoneurons (lumbar) on E9: 24 hours post treatment
Procedure: In the first model, embryos were treated with a single dose of an ICE inhibitor or control protease inhibitor on embryonic day 8 (E8), the time of maximum naturally occurring motoneuron cell death (Hamburger et al., J. Morph. 88:49-92 (1951)). Embryos treated in vivo with the peptide inhibitors appeared to develop normally and there were no gross abnormalties. […] 24 hours after treatment there is a similar reduction in the number of pyknotic cells and a significant increase in the number of healthy motoneurons (Table 6B). […] The ability of ICE inhibitors to block the naturally occurring cell death of interdigital cells in the developing limb was also studied. These cells undergo PCD as a means of sculpting the digits in many vertebrates. When embryos were treated with either ICE inhibitor on embryonic days, E6 and E7, there was a substantial reduction in the number of pyknotic cells between the digits of the hindlimb (FIG. 14).
Peptides. Two peptide inhibitors of ICE, Acetyl-Tyr-Val-Ala-Asp-aldehyde (Ac-YVAD-CHO) and Acetyl-Tyr-Val-Ala-Asp-chloromethylketone (Ac-YVAD-CMK) and two control peptide inhibitors, Acetyl-Leu-Leu-Arg-aldehyde (Ac-LLR-CHO; Leupeptin) and n-tosyl-Lys-chloromethyl-ketone (Tos-Lys-CMK) were synthesized by Bachem Biosciences (King of Prussia, Pa.) and shown by thin layer chromatography and HPLC to be greater than 98% pure. […] Methods for administration of peptides to examine effects on naturally occurring motoneuron cell death in vivo. Although cell death of lumbar motoneurons occurs between E6 and E12, the peak period of death (i.e., the greatest number of pyknotic cells) occurs on E8 (Oppenheim et al., J Comp. Neurol. 177:87-112 (1978)). For these experiments, embryos were given a single administration of an agent on E8 0 hr and sacrificed 15 hours later. […] Ac-YVAD-CMK and Tos-Lys-CMK were administered in a solution of DMSO/BSA, whereas Ac-YVAD-CHO and leupeptin (Sigma) were in BSA alone. The solutions (50-100 μl) were dropped onto the highly vascularized chorioallantoic membrane through a window in the shell. The control groups included both DMSO and BSA or vehicle alone. Embryos were killed and staged by the Hamburger-Hamilton series (Hamburger and Hamilton, J. Morph. 88:49-92 (1951)). The thoraco-lumbar spinal cord was dissected, fixed in Camoys or Bouins fixative, processed for paraffin histology, serially sectioned (10-12 μm) and stained with either thionin or hematoxylin and eosin. Pyknotic motoneurons were identified based on criteria previously described (Chu-Wang and Oppenheim, J. Comp. Neurol. 177:33-58 (1978); Clarke and Oppenheim In Methods in Cell Biology Series; Cell Death; eds: Schwartz and Osborne. Academic Press. New York, N.Y. In press.) and were counted in every 10th or 20th section through the entire lumbar enlargement. The total number of pyknotic cells were then estimated by multiplying these values by 10 or 20. All cell counts were performed by individuals blinded with regard to drug treatment of the embryos. Methods for limb bud removal experiments. A unilateral limb bud removal was performed on E2 as described previously (Oppenheim et al., J. Comp. Neurol. 177:87-112 (1978)). Because induced cell death following limb removal begins on E5 (before that there is no difference in the number of motoneurons between the operated or unoperated sides) embryos were given one treatment of Ac-YVAD-CHO (40 μg) or BSA (control) at E5-0 hr and another at E5-12 hours (total peptide administered was 80 μg). Animals were killed at E6-0 hr. Methods were the same as described above except the section thickness was 6-8 μm (see Method for Administration of Peptides, above). Methods for limb bud interdigital regions. […]

chick spinal motoneurons = assay: Motoneuron culture deprived of muscle extract, survival; type: cell-based; details: without muscle extract, treated between 14 and 24 hours, counted after 3 days
From the text: A tissue culture model system that allows isolation of a relatively pure population of motoneurons whose survival is dependent on muscle extract, a potent source of target-derived trophic support, was used to test the ability of peptide inhibitors of ICE to block motoneuron cell death (Milligan et al., J Neurobiology 25:1005-1016 (1994) and Block-Gallego et al., Development. 111:221-232 (1991)). The death of motoneurons deprived of trophic support in vitro requires new gene expression and occurs by apoptosis (Milligan et al., J. Neurobiology 25:1005-1016 (1994)). Motoneurons deprived of trophic support at the time of plating become irreversibly committed to undergo cell death after 16-18 hours (Milligan et al., J. Neurobiology 25:1005-1016 (1994)). […] When motoneurons are treated with peptide inhibitors in the absence of muscle extract for three days and subsequently supplemented on day three with muscle extract, they continue to survive, and by six days appear as healthy and differentiated as the motoneurons that were continuously supplied with muscle extract (FIGS. 12A, 12B, 15G). Thus, motoneurons rescued for 3 days by ICE inhibitors remain capable of responding to trophic factors present in muscle extract.
Methods for motoneuron cultures. […]

cervical motoneurons = assay: Cervical motoneuron cell death in vivo; parameters: species or system chick; details: for Pyknotic Cervical Motoneurons on E4.5: mean ±SD
From the text: The ability of the ICE inhibitors to block cell death in two classes of neurons whose naturally occurring death appears to be independent of target interaction was also studied. First, motoneurons in the cervical spinal cord undergo PCD between E4 and E5, with maximum levels occurring at E4.5.

[1] = tested on: undifferentiated neurons and precursor cells in the neural tube; assay: Cell death in the early neural tube in vivo; parameters: species or system chick
ICE = molecular target: T1, ICE (Homo sapiens, UniProt P29466); details: protease activity of ICE; cited from earlier work
T1 sequence (P29466 120-297): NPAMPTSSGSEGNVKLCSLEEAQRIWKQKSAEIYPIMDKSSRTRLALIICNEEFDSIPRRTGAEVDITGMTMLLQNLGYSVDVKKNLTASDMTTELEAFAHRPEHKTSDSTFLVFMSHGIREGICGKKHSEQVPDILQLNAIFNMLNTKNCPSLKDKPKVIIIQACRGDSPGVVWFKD
T1 sequence (P29466 317-404): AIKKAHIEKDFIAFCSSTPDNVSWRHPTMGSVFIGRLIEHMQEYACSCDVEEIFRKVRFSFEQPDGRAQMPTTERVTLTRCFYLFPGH

Compound	Pyknotic Lumbar Motoneurons on E8 (lumbar motoneurons)	Healthy Motoneurons (lumbar) on E9 (lumbar motoneurons)	Pyknotic Motoneurons (lumbar) on E9 (lumbar motoneurons)	motoneuron death (chick spinal motoneurons)	survival promoting effects on cervical motoneurons (cervical motoneurons; compared to control or Ac-LLR-CHO treated animals)	Pyknotic Cervical Motoneurons on E4.5 (cervical motoneurons)	survival promoting effects on floorplate or dorsal spinal cord cells ([1]; compared to control animals)	Pyknotic Cells in the Early Neural Tube, Dorsal Spinal Cord ([1]; mean ±SD)	Pyknotic Cells in the Early Neural Tube, Floor Plate ([1]; mean ±SD)	Ki (ICE) [nM]
Cc1ccc(S(=O)(=O)NC(CCCCN)C(=O)CCl)cc1 (stereo not drawn) [Tos-Lys-CMK, n-tosyl-Lys-chloromethyl-ketone]	285 ± 31	13,257 ± 773	345 ± 39							
Acetyl-Tyr-Val-Ala-Asp-chloromethylketone (Ac-YVAD-CH2Cl) [Ac-YVAD-CMK]	216 ± 27	16,231 ± 755	200 ± 33	inhibitory effects on motoneuron death	no survival promoting effects	26.7 ± 2.2	no survival promoting effects	1.372 ± 0.235	0.872 ± 0.201	
Ac-Y[dA]AD-aldehyde [Inhibitor C]										1500
Ac-Tyr-Val-Lys-Asp-CHO (Ac-YVKD-aldehyde; SMILES CC(=O)N[C@@H](Cc1ccc(O)cc1)C(=O)N[C@H](C(=O)N[C@@H](CCCCN)C(=O)N[C@H](C=O)CC(=O)O)C(C)C) [Inhibitor D]										3
CC(=O)N[C@@H](CC(C)C)C(=O)N[C@@H](CC(C)C)C(=O)N[C@H](C=O)CCCNC(=N)N [Leupeptin, Acetyl-Leu-Leu-Arg-aldehyde]	310 ± 40	14,117 ± 971	297 ± 51			32.5 ± 7.9				
